Test results reported in the NIST ThermoML archive (doi:10.1021/je900414p).

Test: xn = mol fraction of the nth substance listed
Details: Liquid

CCOS(=O)(=O)[O-].CCn1cc[n+](C)c1 [1-ethyl-3-methylimidazolium ethyl sulfate] + CCO
mass density [kg/m3]
Details	100 kPa	2500 kPa	5000 kPa	10000 kPa	15000 kPa	20000 kPa	25000 kPa	30000 kPa	35000 kPa
333.15 K, x1 = 0.05056	826.91	829.15	831.49	835.97	840.22	844.27	848.14	851.85	855.41
333.15 K, x1 = 0.103	885.77	887.83	889.93	893.99	897.89	901.61	905.17	908.61	911.93
333.15 K, x1 = 0.1247	907.28	909.17	911.19	915.1	918.84	922.44	925.91	929.24	932.47
333.15 K, x1 = 0.2126	977.1	978.86	980.64	984.14	987.5	990.73	993.88	996.92	999.88
333.15 K, x1 = 0.2919	1026.55	1027.68	1029.31	1032.48	1035.56	1038.53	1041.42	1044.25	1046.98
333.15 K, x1 = 0.3185	1039.85	1041.25	1042.83	1045.92	1048.93	1051.83	1054.66	1057.43	1060.13
333.15 K, x1 = 0.4198	1083.92	1085.39	1086.84	1089.7	1092.49	1095.2	1097.84	1100.42	1102.94
333.15 K, x1 = 0.4847	1106.62	1107.91	1109.29	1112.04	1114.72	1117.29	1119.85	1122.34	1124.77
333.15 K, x1 = 0.5713	1132.56	1133.8	1135.1	1137.7	1140.25	1142.73	1145.17	1147.56	1149.9
333.15 K, x1 = 0.6827	1159.67	1160.86	1162.12	1164.6	1167.03	1169.4	1171.73	1174	1176.25
333.15 K, x1 = 0.7919	1181.63	1182.51	1183.7	1186.07	1188.4	1190.67	1192.91	1195.12	1197.28
333.15 K, x1 = 0.9317	1203.54	1204.68	1205.83	1208.1	1210.35	1212.54	1214.7	1216.82	1218.92
343.15 K, x1 = 0.05056	818.25	820.66	823.11	827.83	832.27	836.51	840.54	844.41	848.12
343.15 K, x1 = 0.103	877.67	879.77	881.99	886.23	890.27	894.14	897.85	901.43	904.85
343.15 K, x1 = 0.1247	899.5	901.47	903.69	907.82	911.68	915.39	918.99	922.46	925.77
343.15 K, x1 = 0.2126	969.67	971.48	973.32	976.91	980.38	983.71	986.96	990.09	993.12
343.15 K, x1 = 0.2919	1019.38	1020.57	1022.23	1025.5	1028.64	1031.72	1034.69	1036.01	1040.41
343.15 K, x1 = 0.3185	1032.6	1034.03	1035.67	1038.87	1041.94	1044.93	1047.86	1050.69	1053.46
343.15 K, x1 = 0.4198	1076.98	1078.52	1080	1082.95	1085.8	1088.59	1091.31	1093.96	1096.54
343.15 K, x1 = 0.4847	1099.67	1100.97	1102.41	1105.21	1107.95	1110.61	1113.23	1115.78	1118.28
343.15 K, x1 = 0.5713	1125.7	1126.98	1128.32	1131.01	1133.6	1136.16	1138.67	1141.1	1143.48
343.15 K, x1 = 0.6827	1152.86	1154.1	1155.37	1157.89	1160.38	1162.8	1165.19	1167.53	1169.82
343.15 K, x1 = 0.7919	1175	1175.81	1177.05	1179.48	1181.84	1184.18	1186.47	1188.72	1190.93
343.15 K, x1 = 0.9317	1196.87	1198.02	1199.21	1201.52	1203.82	1206.06	1208.26	1210.44	1212.58
